Results from PubChem BioAssay AID2060901 (Molecular Pharmacology Branch, DTP, NCI, 2025).
pIC50: −log10 of the molar value.

Test system: 422866-222-R5-J1-PDC complex spheroids viability
Assay: Anticancer human tumor 422866-222-R5-J1-PDC patient-derived pancreatic adenocarcinoma cell line growth inhibition [RAS]
Settings: for pIC50: curve of first compound; for viability, T/C: stronger effect = lower value
In short: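 Multi-cell-type spheroids: tumor cells plus HUVEC endothelial cells and mesenchymal stem cells. RAS-pathway inhibitors were combined with targeted agents, each dosed in half-log steps down from clinical Cmax, or from 10 microM when Cmax was unknown.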

[1] = second compound 0.0316 µM, first compound 0.0316 µM
[2] = second compound 0.0316 µM, first compound 0.1 µM
[3] = second compound 0.0316 µM, first compound 0.316 µM
[4] = second compound 0.0316 µM, first compound 1 µM
[5] = second compound 0.0316 µM, first compound 3.16 µM
[6] = second compound 0.0316 µM, first compound 10 µM
[7] = second compound 0.1 µM, first compound 0.0316 µM
[8] = second compound 0.1 µM, first compound 0.1 µM
[9] = second compound 0.1 µM, first compound 0.316 µM
[10] = second compound 0.1 µM, first compound 1 µM
[11] = second compound 0.1 µM, first compound 3.16 µM
[12] = second compound 0.1 µM, first compound 10 µM
[13] = second compound 0.316 µM, first compound 0.0316 µM
[14] = second compound 0.316 µM, first compound 0.1 µM
[15] = second compound 0.316 µM, first compound 0.316 µM
[16] = second compound 0.316 µM, first compound 1 µM
[17] = second compound 0.316 µM, first compound 3.16 µM
[18] = second compound 0.316 µM, first compound 10 µM
[19] = second compound 1 µM, first compound 0.0316 µM
[20] = second compound 1 µM, first compound 0.1 µM
[21] = second compound 1 µM, first compound 0.316 µM
[22] = second compound 1 µM, first compound 1 µM
[23] = second compound 1 µM, first compound 3.16 µM
[24] = second compound 1 µM, first compound 10 µM
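Further: spheroids exposed to compounds for 7 days.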
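Wherever viability, T/C is given: 100% = DMSO vehicle control viability.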

SMILES: NC1c2ccccc2OC12CCN(c1cnc3c(N4CCCc5ncccc54)n[nH]c3n1)CC2 (centres undefined) + C#Cc1c(F)ccc2cc(O)cc(-c3ncc4c(N5CC6CCC(C5)N6)nc(OCC56CCCN5CC(F)C6)nc4c3F)c12
- pIC50 (second compound 0.0316 µM): 7.25
- pIC50 (second compound 0.1 µM): > 7.50
- pIC50 (second compound 0.316 µM): > 7.50
- pIC50 (second compound 1 µM): > 7.50
- pIC50 (second compound 3.16 µM): > 7.50
- pIC50 (second compound 10 µM): > 7.50
- viability, T/C [1]: 53%
- viability, T/C [2]: 49.2%
- viability, T/C [3]: 34.8%
- viability, T/C [4]: 38.4%
- viability, T/C [5]: 29.5%
- viability, T/C [6]: 23.6%
- viability, T/C [7]: 44%
- viability, T/C [8]: 43.3%
- viability, T/C [9]: 32.8%
- viability, T/C [10]: 28.7%
- viability, T/C [11]: 27.7%
- viability, T/C [12]: 25.5%
- viability, T/C [13]: 38.1%
- viability, T/C [14]: 36.2%
- viability, T/C [15]: 24.1%
- viability, T/C [16]: 26.4%
- viability, T/C [17]: 24.2%
- viability, T/C [18]: 19.7%
- viability, T/C [19]: 27.1%
- viability, T/C [20]: 23.9%
- viability, T/C [21]: 25.2%
- viability, T/C [22]: 17%
- viability, T/C [23]: 19.6%
- viability, T/C [24]: 15%
- viability, T/C (second compound 3.16 µM, first compound 0.0316 µM): 17.8%
- viability, T/C (second compound 3.16 µM, first compound 0.1 µM): 19.8%
- viability, T/C (second compound 3.16 µM, first compound 0.316 µM): 16.1%
- viability, T/C (second compound 3.16 µM, first compound 1 µM): 17.4%
- viability, T/C (second compound 3.16 µM, first compound 3.16 µM): 17.5%
- viability, T/C (second compound 3.16 µM, first compound 10 µM): 14.9%
- viability, T/C (second compound 10 µM, first compound 0.0316 µM): 15.7%
- viability, T/C (second compound 10 µM, first compound 0.1 µM): 16.5%
- viability, T/C (second compound 10 µM, first compound 0.316 µM): 14.3%
- viability, T/C (second compound 10 µM, first compound 1 µM): 16.2%
- viability, T/C (second compound 10 µM, first compound 3.16 µM): 15.6%
- viability, T/C (second compound 10 µM, first compound 10 µM): 16.1%

SMILES: CC(Nc1ccc2c(c1)OCCn1cc(N3C(=O)OCC3C(F)F)nc1-2)C(N)=O (centres undefined) + C=CC(=O)N1CCN(c2nc(OCC3CCCN3C)nc3c(F)c(-c4nc(N)cc(C)c4C(F)(F)F)c(Cl)cc23)C(C)C1
- pIC50 (second compound 0.00316 µM): > 7.50
- pIC50 (second compound 0.01 µM): > 7.50
- pIC50 (second compound 0.0316 µM): > 7.50
- pIC50 (second compound 0.1 µM): > 7.50
- pIC50 (second compound 0.316 µM): > 7.50
- pIC50 (second compound 1 µM): > 7.50
- viability, T/C (second compound 0.00316 µM, first compound 0.0316 µM): 20.8%
- viability, T/C (second compound 0.00316 µM, first compound 0.1 µM): 19.9%
- viability, T/C (second compound 0.00316 µM, first compound 0.316 µM): 12.6%
- viability, T/C (second compound 0.00316 µM, first compound 1 µM): 11%
- viability, T/C (second compound 0.00316 µM, first compound 3.16 µM): 7.97%
- viability, T/C (second compound 0.00316 µM, first compound 10 µM): 7.01%
- viability, T/C (second compound 0.01 µM, first compound 0.0316 µM): 19.1%
- viability, T/C (second compound 0.01 µM, first compound 0.1 µM): 18%
- viability, T/C (second compound 0.01 µM, first compound 0.316 µM): 13.5%
- viability, T/C (second compound 0.01 µM, first compound 1 µM): 6.65%
- viability, T/C (second compound 0.01 µM, first compound 3.16 µM): 7.17%
- viability, T/C (second compound 0.01 µM, first compound 10 µM): 4.82%
- viability, T/C [1]: 24.5%
- viability, T/C [2]: 14.3%
- viability, T/C [3]: 9.64%
- viability, T/C [4]: 7.15%
- viability, T/C [5]: 5.78%
- viability, T/C [6]: 4.99%
- viability, T/C [7]: 14.6%
- viability, T/C [8]: 10.9%
- viability, T/C [9]: 9.29%
- viability, T/C [10]: 8.93%
- viability, T/C [11]: 5.79%
- viability, T/C [12]: 5.64%
- viability, T/C [13]: 18.3%
- viability, T/C [14]: 11%
- viability, T/C [15]: 9.82%
- viability, T/C [16]: 6.95%
- viability, T/C [17]: 6.91%
- viability, T/C [18]: 7.16%
- viability, T/C [19]: 16.5%
- viability, T/C [20]: 15.8%
- viability, T/C [21]: 9.93%
- viability, T/C [22]: 7.52%
- viability, T/C [23]: 6.84%
- viability, T/C [24]: 7.05%
